Assay results reported in patent publication US9113629B2, “4-amino-6-(4-substituted-phenyl)-picolinates and 6-amino-2-(4-substituted-phenyl)-pyrimidine-4-carboxylates and their use as herbicides” (DOW AGROSCIENCES LLC, priority 2013, dated 2015).
Read-outs that look alike come from different tables or passages of the source.

Columns and labels:
[1] = system: Key Grass and Sedge Weeds as well as Grass Crops; assay: Post-emergent Test II herbicidal activity (Table 6); format: in vivo; details: post-emergence, 336 h; for pest or weed control at 70 g/ha: 70 g ai/ha; for pest or weed control at 140 g/ha: 140 g ai/ha
Outline: (§1)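 Visual injury ratings (0 = no injury, 100 = complete kill) were taken 14 d after treatment, relative to untreated plants. Seedlings at the first–second true leaf stage received overhead spray at 187 L/ha; the highest rate was serially diluted to ½×, ¼×, ⅛× and 1/16×.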

[2] = system: Key Broadleaf Weed and Crop Species; assay: Post-emergent Test II herbicidal activity (Table 5); format: in vivo; details: post-emergence, 336 h, 14 days after application; for pest or weed control at 70 g/ha: application rate 70 g ai/ha; for pest or weed control at 140 g/ha: application rate 140 g ai/ha
Outline: as §1

[3] = CYPES: yellow nutsedge (Cyperus esculentus), read-out: Visual Growth Reduction (%) 14 Days After Application, CYPES
[4] = DIGSA: crabgrass (Digitaria sanguinalis), read-out: Visual Growth Reduction (%) 14 Days After Application, DIGSA
[5] = ECHCG: barnyardgrass (Echinochloa crus-galli), read-out: Visual Growth Reduction (%) 14 Days After Application, ECHCG
[6] = ORYSA: rice (Oryza sativa), crop, read-out: Visual Growth Reduction (%) 14 Days After Application, ORYSA
[7] = SETFA: giant foxtail (Setaria faberi), read-out: Visual Growth Reduction (%) 14 Days After Application, SETFA
[8] = SORVU: grain sorghum (Sorghum vulgare), read-out: Visual Growth Reduction (%) 14 Days After Application, SORVU
[9] = TRZSS (wheat, Triticum aestivum), crop, read-out: Visual Growth Reduction (%) 14 Days After Application, TRZSS
[10] = ZEAMX: maize, corn (Zea mays), crop, read-out: Visual Growth Reduction (%) 14 Days After Application, ZEAMX
[11] = ABUTH: velvetleaf (Abutilon theophrasti), read-out: Visual Growth Reduction (%) 14 Days After Application, ABUTH
[12] = AMARE: redroot pigweed (Amaranthus retroflexus), read-out: Visual Growth Reduction (%) 14 Days After Application, AMARE
[13] = BRSNN: oilseed-rape, canola (Brassica napus), read-out: Visual Growth Reduction (%) 14 Days After Application, BRSNN
[14] = CHEAL: lambsquarters (Chenopodium album), read-out: Visual Growth Reduction (%) 14 Days After Application, CHEAL
[15] = EPHHL: wild poinsettia (Euphorbia heterophylla), read-out: Visual Growth Reduction (%) 14 Days After Application, EPHHL
[16] = HELAN: sunflower (Helianthus annuus), read-out: Visual Growth Reduction (%) 14 Days After Application, HELAN
[17] = VIOTR: wild pansy (Viola tricolor), read-out: Visual Growth Reduction (%) 14 Days After Application, VIOTR

Nc1c(F)c(-c2ccc(I)c(F)c2F)nc(C(=O)O)c1Cl [Compound 141, 4-amino-3-chloro-6-(2,3-difluoro-4-iodophenyl)-5-fluoropicolinic acid]
pest or weed control at 70 g/ha [1, 3]: 0 to 29%
pest or weed control at 140 g/ha [1, 3]: 95 to 100%
pest or weed control at 70 g/ha [1, 4]: 75 to 84%
pest or weed control at 140 g/ha [1, 4]: 75 to 84%
pest or weed control at 70 g/ha [1, 5]: 85 to 94%
pest or weed control at 140 g/ha [1, 5]: 95 to 100%
pest or weed control at 70 g/ha [1, 6]: 0 to 29%
pest or weed control at 140 g/ha [1, 6]: 0 to 29%
pest or weed control at 70 g/ha [1, 7]: 75 to 84%
pest or weed control at 140 g/ha [1, 7]: 95 to 100%
pest or weed control at 70 g/ha [1, 8]: 85 to 94%
pest or weed control at 140 g/ha [1, 8]: 85 to 94%
pest or weed control at 70 g/ha [1, 9]: 60 to 74%
pest or weed control at 140 g/ha [1, 9]: 60 to 74%
pest or weed control at 70 g/ha [1, 10]: 95 to 100%
pest or weed control at 140 g/ha [1, 10]: 95 to 100%
melting point: 155 to 157 °C
pest or weed control at 70 g/ha [2, 11]: 85 to 94%
pest or weed control at 140 g/ha [2, 11]: 85 to 94%
pest or weed control at 70 g/ha [2, 12]: 95 to 100%
pest or weed control at 140 g/ha [2, 12]: 95 to 100%
pest or weed control at 70 g/ha [2, 13]: 95 to 100%
pest or weed control at 140 g/ha [2, 13]: 95 to 100%
pest or weed control at 70 g/ha [2, 14]: 85 to 94%
pest or weed control at 140 g/ha [2, 14]: 85 to 94%
pest or weed control at 70 g/ha [2, 15]: 95 to 100%
pest or weed control at 140 g/ha [2, 15]: 95 to 100%
pest or weed control at 70 g/ha [2, 16]: 95 to 100%
pest or weed control at 140 g/ha [2, 16]: 95 to 100%
pest or weed control at 70 g/ha [2, 17]: 95 to 100%
pest or weed control at 140 g/ha [2, 17]: 95 to 100%

Nc1c(F)c(-c2ccc(C(F)(F)F)c(F)c2)nc(C(=O)O)c1Cl [Compound 134]
pest or weed control at 70 g/ha [1, 3]: 95 to 100%
pest or weed control at 140 g/ha [1, 3]: 95 to 100%
pest or weed control at 70 g/ha [1, 4]: 75 to 84%
pest or weed control at 140 g/ha [1, 4]: 85 to 94%
pest or weed control at 70 g/ha [1, 5]: 95 to 100%
pest or weed control at 140 g/ha [1, 5]: 95 to 100%
pest or weed control at 70 g/ha [1, 6]: 45 to 59%
pest or weed control at 140 g/ha [1, 6]: 45 to 59%
pest or weed control at 70 g/ha [1, 7]: 95 to 100%
pest or weed control at 140 g/ha [1, 7]: 95 to 100%
pest or weed control at 70 g/ha [1, 8]: 85 to 94%
pest or weed control at 140 g/ha [1, 8]: 85 to 94%
pest or weed control at 70 g/ha [1, 9]: 60 to 74%
pest or weed control at 140 g/ha [1, 9]: 75 to 84%
pest or weed control at 70 g/ha [1, 10]: 45 to 59%
pest or weed control at 140 g/ha [1, 10]: 60 to 74%
melting point: 124 to 126 °C
pest or weed control at 70 g/ha [2, 11]: 85 to 94%
pest or weed control at 140 g/ha [2, 11]: 85 to 94%
pest or weed control at 70 g/ha [2, 12]: 85 to 94%
pest or weed control at 140 g/ha [2, 12]: 95 to 100%
pest or weed control at 70 g/ha [2, 13]: 95 to 100%
pest or weed control at 140 g/ha [2, 13]: 95 to 100%
pest or weed control at 70 g/ha [2, 14]: 95 to 100%
pest or weed control at 140 g/ha [2, 14]: 95 to 100%
pest or weed control at 70 g/ha [2, 15]: 95 to 100%
pest or weed control at 140 g/ha [2, 15]: 95 to 100%
pest or weed control at 70 g/ha [2, 16]: 95 to 100%
pest or weed control at 140 g/ha [2, 16]: 95 to 100%
pest or weed control at 70 g/ha [2, 17]: 95 to 100%
pest or weed control at 140 g/ha [2, 17]: 95 to 100%
